Active and inactive are the calls of the source. The calls are words filed in the database; no cut-off is given here.
Tests used:
Nicotiana tabacum [1] = experiment: Induction of systemic resistance (ISR) activity in Nicotiana tabacum (tobacco) seedlings against pectobacterium carotovorum subsp. carotovorum SCC1 assessed as decrease in disease symptoms on leaves at 12 mM applied to roots prior to leaf infection with SCC1 measured at 3 days after pathogen challenge; type: functional, organism-based
Nicotiana tabacum [2] = experiment: Induction of systemic resistance (ISR) activity in Nicotiana tabacum (tobacco) seedlings against pectobacterium carotovorum subsp. carotovorum SCC1 assessed as decrease in disease symptoms on leaves applied to roots prior to leaf infection with SCC1 measured at 3 days after pathogen challenge; type: functional, organism-based

SMILES	Activity (Nicotiana tabacum [1])	Activity (Nicotiana tabacum [2])
CCCCOC(=O)C1CCC(=O)N1 (configuration not stated)	Active	–
CCCCOC(=O)[C@@H]1CCC(=O)N1	–	Active

From ChEMBL document CHEMBL3046690, “Identification of an ISR-related metabolite produced by rhizobacterium Klebsiella oxytoca C1036 active against soft-rot disease pathogen in tobacco” (Pest Manag Sci, 2009)
